# Experimental data reported in US20040121965A1, “Method of treating resistant tumors” (Wyeth Holdings Corporation, priority 2002, published 2004).
# pIC50: −log10 of the molar value. Like-named read-outs stand apart in the source and are kept apart here.
# What was measured:
# [1] = system: tumor cell lines; test: cells; assay type: cell-based; conditions: Five micromolar
# Description: Cells lines with previously known mechanisms of resistance. […] Res. 8: 207-218,1996); KB-3-1 (parental derived from an epidermoid carcinoma), KB-8.5, KB-V1 (Akiyama S-I, Fojo A, Hanover J A, Pastan I, Gottesman M M. Isolation and genetic characterization of human KB cell lines resistant to multiple drugs. Somatic Cell Mol. Gen., 11: 117-126,1985; Shen D-W, Cardarelli C, Hwang J, Cornwell M, Richert N, Ishii S, Pastan I, Gottesman MM. […] J. Biol. Chem., 261: 7762-7770, 1986); and HL-60 (parental derived from human leukemia) and HL60/AR (McGrath T., Center M. S. Adriamycin resistance in HL60 cells in the absence of detectable P-glycoprotein. Biochem. Res. Commun., 145:1171-1176,1987); A549 and A549.EpoB40 (He L., Yang C.-P.H., Horwitz S. B. Mutations in p-tubulin map to domains involved in regulation of microtubule stability in epothilone-resistant cell lines. Molecular Cancer Therapeutics. 1: 3-10, 2001). HCT-15 human colon carcinoma and DLD-1 human colon carcinoma are obtained from American Tissue Culture Collection. The MX-1W carcinoma is a Wyeth variant orginally obtained as MX-1 breast carcinoma from the National Cancer Institute. Cell lines selected for resistance to Representative Example 129. KB-3-1 cells are selected for resistance to Example 129 by chronically exposing cells to increasing concentrations of Example 129.
# 2.2. Cell Survival Assay: Standard Pharmacological Test Procedure. The concentration of candidate inhibitor required to inhibit 50% of cell growth (IC50) is done according to previously reported methods. […] Compounds are serially diluted into media as 2× stocks and 100 μl added to cells in duplicate. Compounds are incubated with cells for 3 days. At the end of the incubation period the sulforhodamine B (SRB) assay, which measures protein content as an assessment of cell survival, is performed as described previously (Skehan P, Storeng R, Scudiero D, Monks A, McMahon J, Vistica D, Warren J T, Bokesch H, Kenney S, Boyd MR. New calorimetric cytotoxicity assay for anticancer-drug screening. J Natl Cancer Inst 1990 Jul 4;82(13):1107-12) with some modification as follows. For KB-3-1 cells with 20% FCS, media is gently decanted and replaced with 200 μl of serum-free media mixed with cold 50% TCA for a final concentration of 10% TCA. The plates are incubated for 1 hr at 4° C., followed by washing 5 times in cold distilled water, then air dried overnight. The fixed cells are stained for 10 min with 80 μl of 0.04% SRB solution prepared in 1% glacial acetic acid. Stain is discarded and plates washed 5 times in 1% glacial acetic acid, then air-dried until completely dry. Stained cell product is dissolved in 150 μl of 10 mM Trizma Base and placed on a shaker for 20 minutes until fully dissolved. Absorbance is read on a Victor V multi-label plate reader (Perkin Elmer, Gaithersburg, Md.).
# [2] = system: KB-8-5 (MDR1+); test: Cell survival assay (SRB), KB-8-5 (MDR1+); conditions: for IC50: Homo sapiens, MDR1, read-out: In vitro IC50 (nM) KB85
# [3] = system: KB-V1 (MDR1++); test: Cell survival assay (SRB), KB-V1 (MDR1++); conditions: for IC50: Homo sapiens, read-out: In vitro IC50 (nM) KBV1
# [4] = system: KB-3-1; test: Cell survival assay (SRB), KB-3-1; assay type: cell-based, human; conditions: Homo sapiens; for pIC50: KB 3-1, 72 h, amount of drug needed to kill 50% of cells after three days continuous exposure, Table 11, read-out: IC50 in parental cell line KB-3-1; for IC50: KB 3-1, KB-3-1 cells (paclitaxel-sensitive parent), read-out: In vitro IC50 (nM) KB-3-1
# Summary of the method: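 SRB protein stain as survival read-out; IC50 = conc. giving 50% growth inhibition. Compound serially diluted, duplicate wells, 3 d exposure; TCA fixation (10% final, 1 h, 4 °C), 0.04% SRB/1% acetic acid 10 min, solubilised in 10 mM Trizma Base, A read.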
# [5] = system: Human Melanoma Carcinoma Lox; conditions: staged LOX xenograft; at MTD ('<': MTD not achieved); days 11-15
# Experimental: 2.4. Growth of Tumors in Nude Mice. […] In these experiments, xenografts are implanted subcutaneously into the flanks of nude mice. […] Relative tumor mass compared to controls are assessed during the 21-day post-staging period.
# Groups of 5 female nu/nu mice are injected with 1.5×10^6 KB-3-1 (A) or Lox cells (B). […] Relative tumor growth is determined during the experiment and % T/C calculated. Statistical analyses are Student's t-test of treated time points vs. vehicle (*, P<0.05; **, P<0.01)
smiles,measurement,setting,value
COc1ccc(C(C#N)(CCCCCN2CCc3cc(OC)c(OC)cc3C2)Sc2ccc(C)cc2)cc1OC (centres unmarked),effect on cell growth when given alone,"[1]; KB-3-1, KB-85, KB-V1 (Table 4)",# has no inhibitory effect on cell growth when given alone. Data are the mean of two experiments.
same,effect on cell growth when given alone,"[1]; MX-1W, DLD-1, HCT-15 (Table 2)","# Five micromolar 7-(6,7-dimethoxy-3,4-dihydro-1H-isoquinolin-2-yl)-2(3,4-dimethoxy-phenyl)-2-p-tolysulfanyl-heptanenitrile has no inhibitory effect on cell growth when given alone."
"CN[C@H](C(=O)N[C@H](C(=O)N(C)[C@H](/C=C(\C)C(=O)O)C(C)C)C(C)(C)C)C(C)(C)c1cccc(C(F)(F)F)c1 [Example 62, N,β,β-Trimethyl-3-(trifluoromethyl)-L-phenylalanyl-N^1-[(1S,2E)-3-carboxy-1-isopropyl-2-butenyl]-N^1,3-dimethyl-L-valinamide]",Ratio KB85/KB,[2],2.6
same,IC50,[2],1.7 nM
same,Ratio KBV1/KB,[3],66.0
same,IC50,[3],42.7 nM
same,pIC50,[4],9.15
same,IC50,[4],0.647 nM
same,Activity in nude mice animal model (% T/C @ MTD on days 11-15) LOX,[5],2%
"CN[C@@H](C(=O)N[C@H](C(=O)N(C)[C@H](/C=C(\C)C(=O)O)C(C)C)C(C)(C)C)C(C)(C)c1cc(F)cc(F)c1 [Example 65, 3,5-Difluoro-N,β,β-trimethyl-D-phenylalanyl-N^1-[(1S,2E)-3-carboxy-1-isopropylbut-2-enyl]-N^1,3-dimethyl-L-valinamide]",Ratio KB85/KB,[2],1.5
same,IC50,[2],2.9 nM
same,Ratio KBV1/KB,[3],38.8
same,IC50,[3],77.6 nM
same,pIC50,[4],8.70
same,IC50,[4],2 nM
same,Activity in nude mice animal model (% T/C @ MTD on days 11-15) LOX,[5],8%
"CN[C@H](C(=O)N[C@H](C(=O)N(C)[C@H](/C=C(\C)C(=O)O)C(C)C)C(C)(C)C)C(C)(C)C1CCCCC1 [Example 70, 3-Cyclohexyl-N-methyl-L-valyl-N-1-[(1S,2E)-3-carboxy-1-isopropyl-2-butenyl]-N-1,3-dimethyl-L-valinamide]",Ratio KB85/KB,[2],1.5
same,IC50,[2],5.6 nM
same,Ratio KBV1/KB,[3],40.9
same,IC50,[3],151 nM
same,pIC50,[4],8.43
same,IC50,[4],3.7 nM
same,Activity in nude mice animal model (% T/C @ MTD on days 11-15) LOX,[5],4%
"CC/C(=C\[C@H](C(C)C)N(C)C(=O)[C@@H](NC(=O)[C@@H](NC)C(C)(C)c1ccccc1)C(C)(C)C)C(=O)O [Example 78, N,β,β-Trimethyl-L-phenylalanyl-N^1-[(1S,2E)-3-carboxy-1-isopropyl-2-pentenyl]-N 1,3-dimethyl-L-valinamide]",Ratio KB85/KB,[2],2.5
same,IC50,[2],13.7 nM
same,Ratio KBV1/KB,[3],94.9
same,IC50,[3],512 nM
same,pIC50,[4],8.27
same,IC50,[4],5.4 nM
same,Activity in nude mice animal model (% T/C @ MTD on days 11-15) LOX,[5],17%
"CN[C@H](C(=O)N[C@H](C(=O)N(C)[C@H](/C=C(\C)C(=O)O)C(C)C)C(C)(C)SC)C(C)(C)c1ccccc1 [Example 80, (E,4S)-2,5-dimethyl-4-{methyl[(2R)-3-methyl-2-{[(2S)-3-methyl-2-(methylamino)-3-phenylbutanoyl]amino}-3-(methylsulfanyl)butanoyl]amino}-2-hexenoic Acid]",Ratio KB85/KB,[2],2.6
same,IC50,[2],7.1 nM
same,Ratio KBV1/KB,[3],112.2
same,IC50,[3],303 nM
same,pIC50,[4],8.57
same,IC50,[4],2.7 nM
same,Activity in nude mice animal model (% T/C @ MTD on days 11-15) LOX,[5],8^4%
"CN[C@H](C(=O)N[C@H](C(=O)N(C)[C@H](/C=C(\C)C(=O)O)C(C)C)C(C)C)C(C)(C)c1ccccc1.O=C(O)C(F)(F)F [Example 105, N,β,β-trimethyl-L-phenylalanyl-N^1-[(1S,2E)-3-carboxy-1-isopropyl-2-butenyl]-N^1-methyl-L-valinamide Trifluoroacetic Acid]",Ratio KB85/KB,[2],2.1
same,IC50,[2],11.1 nM
same,Ratio KBV1/KB,[3],54.9
same,IC50,[3],288 nM
same,pIC50,[4],8.28
same,IC50,[4],5.25 nM
same,Activity in nude mice animal model (% T/C @ MTD on days 11-15) LOX,[5],8%
"CC[C@H](C)[C@H](NC(=O)[C@@H](NC)C(C)(C)c1ccccc1)C(=O)N(C)[C@H](/C=C(\C)C(=O)O)C(C)C.O=C(O)C(F)(F)F [Example 106, N,β,β-trimethyl-L-phenylalanyl-N^1-[(1S,2E)-3-carboxy-1-isopropyl-2-butenyl]-N^1-methyl-L-isoleucinamide Trifluoroacetic Acid]",Ratio KB85/KB,[2],2.2
same,IC50,[2],34 nM
same,Ratio KBV1/KB,[3],42.3
same,IC50,[3],660 nM
same,pIC50,[4],7.81
same,IC50,[4],16 nM
same,Activity in nude mice animal model (% T/C @ MTD on days 11-15) LOX,[5],<47^4%
"CN[C@H](C(=O)N[C@H](C(=O)N(C)[C@H](C[C@@H](C)C(=O)O)C(C)C)C(C)(C)C)C(C)(C)c1ccccc1 [Example 124, N,β,β-trimethyl-L-phenylalanyl-N^1-[(1R,3R)-3-carboxy-1-isopropylbutyl]-N^1,3-dimethyl-L-valinamide]",Ratio KB85/KB,[2],2.2
same,IC50,[2],18.9 nM
same,Ratio KBV1/KB,[3],153.0
same,IC50,[3],1320 nM
same,pIC50,[4],8.07
same,IC50,[4],8.6 nM
same,Activity in nude mice animal model (% T/C @ MTD on days 11-15) LOX,[5],62%
"CCOC(=O)/C(C)=C/[C@H](C(C)C)N(C)C(=O)[C@@H](NC(=O)[C@@H](NC)C(C)(C)c1ccccc1)C(C)(C)C [Example 133, Ethyl (E,4S)4-[((2S)-3,3-dimethyl-2-{[(2S)-3-methyl-2-(methylamino)-3-phenylbutanoyl]amino}butanoyl)(methyl)amino]-2,5-dimethyl-2-hexenoate]",Ratio KB85/KB,[2],14.5
same,IC50,[2],499 nM
same,Ratio KBV1/KB,[3],54.5
same,IC50,[3],1870 nM
same,pIC50,[4],7.47
same,IC50,[4],34 nM
same,Activity in nude mice animal model (% T/C @ MTD on days 11-15) LOX,[5],1%
